From patent US12168646B2, “Aryl hydrocarbon receptor agonists and uses thereof” (NEXYS THERAPEUTICS, INC., priority 2022, dated 2024)
Like-named read-outs stand apart in the source and are kept apart here.

Experiments:
AhR = molecular target: T1, AhR (Homo sapiens, UniProt P35869); test: HT29 AhR Reporter Assay (HT29-Lucia AhR cells, QUANTI-Luc luminescence); type: cell-based; settings: for EC50: 18-24 h, EC50 = concentration to reach half of maximum efficacy of reference compound VAF347; for Emax: read-out: HT29 AhR % efficacy
T1 construct: HT29-Lucia AhR cells were purchased from Invivogen (cat #ht21-ahr); host or cells: HT29-Lucia AhR cells
T1 sequence (P35869 11-848): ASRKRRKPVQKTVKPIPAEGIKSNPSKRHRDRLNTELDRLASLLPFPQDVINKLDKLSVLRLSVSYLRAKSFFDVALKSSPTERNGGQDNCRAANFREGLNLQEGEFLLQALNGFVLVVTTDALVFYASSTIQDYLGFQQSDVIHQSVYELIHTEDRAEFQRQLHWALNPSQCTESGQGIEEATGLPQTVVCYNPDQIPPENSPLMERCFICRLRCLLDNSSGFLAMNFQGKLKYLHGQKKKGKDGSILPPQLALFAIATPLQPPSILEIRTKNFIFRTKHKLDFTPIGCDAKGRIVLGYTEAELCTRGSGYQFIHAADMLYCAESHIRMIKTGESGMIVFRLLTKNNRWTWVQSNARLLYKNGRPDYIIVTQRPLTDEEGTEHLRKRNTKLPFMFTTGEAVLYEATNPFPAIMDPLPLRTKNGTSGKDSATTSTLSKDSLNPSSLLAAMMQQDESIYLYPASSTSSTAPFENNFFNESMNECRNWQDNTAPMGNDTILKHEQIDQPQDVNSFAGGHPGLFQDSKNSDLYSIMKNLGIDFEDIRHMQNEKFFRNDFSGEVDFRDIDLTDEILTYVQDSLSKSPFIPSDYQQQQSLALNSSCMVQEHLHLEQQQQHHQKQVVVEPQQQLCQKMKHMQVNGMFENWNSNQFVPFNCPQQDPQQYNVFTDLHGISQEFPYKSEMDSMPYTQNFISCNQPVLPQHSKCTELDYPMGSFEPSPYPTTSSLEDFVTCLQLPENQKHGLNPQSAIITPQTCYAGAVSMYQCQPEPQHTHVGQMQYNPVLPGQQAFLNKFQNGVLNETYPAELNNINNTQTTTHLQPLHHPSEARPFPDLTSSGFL
Description: Biological Data 1: HT29 AhR Reporter Assay HT29-Lucia AhR cells were purchased from Invivogen (cat #ht21-ahr). […] The cell suspension was removed from growth medium and rinsed gently with pre-warmed PBS (10 mL). Pre-warmed Trypsin (1 mL) was added, and cells were held at 30° C. for about 5 min and then detached by pipette. The dissociated cell clumps were gently pipetted up and down. The cells were resuspended in pre-warmed detection medium (DMEM, 10% FBS (30 min at 56° C.), 100 U/ml penicillin, 100 μg/ml streptomycin, and test article or vehicle) and counted. A cell suspension of ˜500,000 cells/mL in Detection medium was prepared. […] Samples (20 μL/well) were pipetted into a 96-well white (opaque), and QUANTI-Luc™ (50 μL/well) was added. The plate was gently tapped and then read in a luminometer (0.1 s reading time).

[1] = Stability in human feces (azo reduction in feces homogenate); type: in vitro ADME; settings: pH 6.8, 37° C., under nitrogen
Description: Biological Data 2: Stability in Human Feces
Accordingly, selected azo compounds of the invention were exposed to human feces under conditions suitable to promote azo reduction.
The human feces from two donors were homogenized in isotonic phosphate buffered saline (pH 6.8) with a ratio of 1:10 (w/v). The tubes were sealed using sealing film. Test article was dissolved in isotonic phosphate buffer (pH 6.8) to form a working solution of 20 μM (if the solubility allows). An aliquot of working solution (50 μL) was added to the human feces homogenate (50 μL) for each time point (0, 1, 2, 4, 6 and 24 h) in duplicate and placed under nitrogen for about 1 minute in order to exhaust air, and then incubated at 37° C. After incubation at each pre-set time point, 1000 μL acetonitrile containing internal standard w as added to each tube to quench reaction. Samples were vortexed and centrifuged at 3700 rpm for 10 min and the supernatant was transferred for analysis (and diluted where necessary). The concentrations of test article and its metabolite (example 3) in the supernatants were determined using LC-MS/MS method. Sulfasalazine was used as a positive control. All incubations were performed in duplicate.

[2] = HT29-Lucia AhR cells, % efficacy = 100%*(TA-BG)/(Ref-BG), Ref = VAF347

| Compound | EC50 (AhR; HT29-Lucia AhR cells) [µM] | Emax (AhR; [2]) [%] | % of parent remaining after incubation for 6 h [1] [%] | Emax (AhR) [%] |
| --- | --- | --- | --- | --- |
| Nc1ccc(-c2ccnc(Nc3ccc(C(F)(F)F)cc3)n2)cc1 [Example 1, 4-(4-aminophenyl)-N-(4-(trifluoromethyl)phenyl)pyrimidin-2-amine] | > 30 |  |  | 16 |
| Nc1ccccc1-c1ccnc(Nc2ccc(C(F)(F)F)cc2)n1 [Example 3, 4-(2-aminophenyl)-N-(4-(trifluoromethyl)phenyl)pyrimidin-2-amine] | 1.33 |  |  | 165 |
| Nc1ccc(Cl)cc1-c1ccnc(Nc2ccc(C(F)(F)F)cc2)n1 [Example 4, 4-(2-amino-5-chlorophenyl)-N-(4-(trifluoromethyl)phenyl)pyrimidin-2-amine] | > 30 |  |  | 18 |
| Nc1ccc(-c2ccnc(Nc3ccc(C(F)(F)F)cc3)n2)cc1Cl [Example 5, 4-(4-amino-3-chlorophenyl)-N-(4-(trifluoromethyl)phenyl)pyrimidin-2-amine] | 20 | 46 |  |  |
| Nc1cc(Cl)cc(-c2ccnc(Nc3ccc(C(F)(F)F)cc3)n2)c1 [Example 6, 4-(3-amino-5-chlorophenyl)-N-(4-(trifluoromethyl)phenyl)pyrimidin-2-amine] | > 30 | 15 |  |  |
| Nc1cccc(C(=O)O)c1-c1ccnc(Nc2ccc(C(F)(F)F)cc2)n1 [Example 9] | 2.62 |  |  | 89 |
| Nc1ccc(O)c(-c2ccnc(Nc3ccc(C(F)(F)F)cc3)n2)c1 [Example 11, 4-amino-2-(2-((4-(trifluoromethyl)phenyl)amino)pyrimidin-4-yl)phenol] | > 30 |  |  | -17 |
| Nc1ccc(O)cc1-c1ccnc(Nc2ccc(C(F)(F)F)cc2)n1 [Example 12, 4-amino-3-(2-((4-(trifluoromethyl)phenyl)amino)pyrimidin-4-yl)phenol] | > 30 |  |  | 17 |
| CS(=O)(=O)c1ccc(N)c(-c2ccnc(Nc3ccc(C(F)(F)F)cc3)n2)c1 [Example 13, 4-(2-amino-5-(methylsulfonyl)phenyl)-N-(4-(trifluoromethyl)phenyl)pyrimidin-2-amine] | > 30 |  |  | 7 |
| CS(=O)(=O)c1ccc(N)cc1-c1ccnc(Nc2ccc(C(F)(F)F)cc2)n1 [Example 14, 4-(5-amino-2-(methylsulfonyl)phenyl)-N-(4-(trifluoromethyl)phenyl)pyrimidin-2-amine] | 16.9 |  |  | 51 |
| Nc1cc(C(F)(F)F)ccc1Nc1nccc(-c2cccc(Cl)c2)n1 [Example 21, N^1-(4-(3-chlorophenyl)pyrimidin-2-yl)-4-(trifluoromethyl)benzene-1,2-diamine] | > 30 | 27 |  |  |
| O=C(O)c1cc(/N=N/c2cccc(-c3ccnc(Nc4ccc(C(F)(F)F)cc4)n3)c2)ccc1O [Example 27, (E)-2-hydroxy-5-((3-(2-((4-(trifluoromethyl)phenyl)amino)pyrimidin-4-yl)phenyl)diazenyl)benzoic acid] |  |  | 74 |  |
| O=C(O)c1cc(/N=N/c2ccccc2-c2ccnc(Nc3ccc(C(F)(F)F)cc3)n2)ccc1O [Example 32, (E)-2-hydroxy-5-((2-(2-((4-(trifluoromethyl)phenyl)amino)pyrimidin-4-yl)phenyl)diazenyl)benzoic acid] |  |  | 49 |  |
| Oc1ccc(/N=N/c2ccccc2-c2ccnc(Nc3ccc(C(F)(F)F)cc3)n2)cc1 [Example 33, (E)-4-((2-(2-((4-(trifluoromethyl)phenyl)amino)pyrimidin-4-yl)phenyl)diazenyl)phenol] |  |  | 59 |  |
| O=C(O)c1ccc(O)c(/N=N/c2ccccc2-c2ccnc(Nc3ccc(C(F)(F)F)cc3)n2)c1 [Example 36, (E)-4-Hydroxy-3-((2-(2-((4-(trifluoromethyl)phenyl)amino)pyrimidin-4-yl)phenyl)diazenyl)benzoic acid] |  |  | 19 |  |
| O=C(O)c1cc(/N=N/c2ccccc2-c2ccnc(Nc3ccc(C(F)(F)F)cc3)n2)cc(C(=O)O)c1O [Example 37, (E)-2-Hydroxy-5-((2-(2-((4-(trifluoromethyl)phenyl)amino)pyrimidin-4-yl)phenyl)diazenyl)isophthalic acid] |  |  | 69 |  |
| O=C(O)c1cc(O)ccc1/N=N/c1ccccc1-c1ccnc(Nc2ccc(C(F)(F)F)cc2)n1 [Example 38, (E)-5-hydroxy-2-((2-(2-((4-(trifluoromethyl)phenyl)amino)pyrimidin-4-yl)phenyl)diazenyl)benzoic acid] |  |  | 4 |  |
| FC(F)(F)c1ccc(Nc2nccc(-c3cccc(Cl)c3)n2)cc1 [VAF347, reference compound] | 0.026 | 100 |  |  |

Now from value to compound, other results behind:

| EC50 (AhR; HT29-Lucia AhR cells) [µM] | Emax (AhR; [2]) [%] | % of parent remaining after incubation for 6 h [1] [%] | Compound | Emax (AhR) [%] |
| --- | --- | --- | --- | --- |
| > 30 | 29 |  | Nc1ccc(C(=O)O)c(-c2ccnc(Nc3ccc(C(F)(F)F)cc3)n2)c1 [Example 7, 4-amino-2-(2-((4-(trifluoromethyl)phenyl)amino)pyrimidin-4-yl)benzoic acid] |  |
| > 30 | 13 |  | Nc1ccc(-c2ccnc(Nc3ccc(C(F)(F)F)cc3)n2)c(C(=O)O)c1 [Example 8, 5-amino-2-(2-((4-(trifluoromethyl)phenyl)amino)pyrimidin-4-yl)benzoic acid] |  |
| 9.24 | 69 |  | Nc1ccc(CC(=O)O)c(-c2ccnc(Nc3ccc(C(F)(F)F)cc3)n2)c1 [Example 10, 2-(4-amino-2-(2-((4-(trifluoromethyl)phenyl)amino)pyrimidin-4-yl)phenyl)acetic acid] |  |
| > 30 | 10 |  | Nc1cccc(-c2ccnc(Nc3ccc(C(=O)O)cc3)n2)c1 [Example 18, 4-((4-(3-aminophenyl)pyrimidin-2-yl)amino)benzoic acid] |  |
| > 30 | 13 |  | Nc1cccc(-c2ccnc(Nc3cccc(C(=O)O)c3)n2)c1 [Example 20, 3-((4-(3-aminophenyl)pyrimidin-2-yl)amino)benzoic acid] |  |
| 0.018 | 124 |  | Nc1cc(Nc2nccc(-c3cccc(Cl)c3)n2)ccc1C(F)(F)F [Example 22, N^1-(4-(3-chlorophenyl)pyrimidin-2-yl)-4-(trifluoromethyl)benzene-1,3-diamine] |  |
| > 30 | 33 |  | Nc1cc(Nc2nccc(-c3ccccc3C(=O)O)n2)ccc1C(F)(F)F [Example 23, 2-(2-((3-amino-4-(trifluoromethyl)phenyl)amino)pyrimidin-4-yl)benzoic acid] |  |
| > 30 | 5 |  | Nc1cc(Nc2nccc(-c3cccc(C(=O)O)c3)n2)ccc1C(F)(F)F [Example 24, 3-(2-((3-amino-4-(trifluoromethyl)phenyl)amino)pyrimidin-4-yl)benzoic acid] |  |
| 6.92 | 21 |  | Nc1ccc(Nc2nccc(-c3ccccc3O)n2)cc1 [Example 25, 2-(2-((4-aminophenyl)amino)pyrimidin-4-yl)phenol] |  |
| > 30 | 141 |  | Nc1cccc(Nc2nccc(-c3ccccc3O)n2)c1 [Example 26, 2-(2-((3-aminophenyl)amino)pyrimidin-4-yl)phenol] |  |
|  |  | 95 | O=C(O)c1cccc(/N=N/c2ccccc2-c2ccnc(Nc3ccc(C(F)(F)F)cc3)n2)c1 [Example 34, (E)-3-((2-(2-((4-(trifluoromethyl)phenyl)amino)pyrimidin-4-yl)phenyl)diazenyl)benzoic acid] |  |
